Measured values: article PMC6694155, “PTPσ inhibitors promote hematopoietic stem cell regeneration” (Nature Communications, 2019)
Several values for one entry are separate records, joined by “and”; a condition that tells them apart may be missing. Equal entries are not always repeated.

How the values were obtained:
[1] = target: T1, PPα (Protein Phosphatase 1 Catalytic Subunit alpha) (Homo sapiens, UniProt P62136); assay: PhosphataseProfiler screen: PPα; format: biochemical; details: replicates
T1 construct: purchased Eurofins Pharma Discovery Services UK
Protocol: (§1) Compound DJ001 was evaluated in a PhosphataseProfiler™ screen at 10 μM and 1 μM (2.7 μg/mL and 0.27 μg/mL) concentrations at Eurofins Pharma Discovery Services UK (Study number UK022-0004033) against a panel of 21 Phosphatases. In each experiment, the respective reference antagonist/agonist was tested directly with DJ001 and the data were compared with historical values determined at Eurofins. DJ001 compound inhibition was calculated as percentage inhibition of the enzymatic activity compared with control.

[2] = system: RAC1-GTP in BM KSL cells; assay: RAC1-GTP intracellular flow cytometry of BM KSL cells; format: cell-based, mouse; parameters: Figure 3c: RAC1-GTP in BM KSL cells: unit not given here; details: for Figure 3c: RAC1-GTP in BM KSL cells: individual replicates
Protocol: Intracellular flow cytometric analysis was performed on irradiated (300 cGy) or non-irradiated, sorted KSL cells after treatment with 1 μg/mL DJ001 or control (equal volumes of DMSO) for 24 h. At 24 h after irradiation, cells were fixed with 4% PFA for 10 min, followed by permeabilization using 0.25% saponin in PBS. Cells were washed again and stained with antibody at the recommended concentrations for 30 min at RT. Intracellular antibodies and phospho-flow antibodies used were as follows: FITC-conjugated anti-BCL-XL (Abcam, #26148, 1:100), active RAC1-GTP antibody (NewEast Biosciences, #26903, 1:100) and anti-PAK1 (phospho S144) + PAK2 (phospho S141) + PAK3 (phospho S154) antibody (Abcam, #40795, 1:100), and FITC-conjugated goat anti-rabbit IgG H&L (Abcam, #97050, 1:200).

[3] = system: panel of 21 Phosphatases; assay: PhosphataseProfiler screen, whole panel; format: biochemical; details: DJ001 at 10 μM and 1 μM
Protocol: as §1

[4] = target: T2, Protein Phosphatase 5 (Homo sapiens, UniProt P53041); assay: PhosphataseProfiler screen: PP5; format: biochemical; details: for Supplementary Figure 1: PP5 activity: replicates
T2 construct: purchased Eurofins Pharma Discovery Services UK
T2 sequence (P53041 1-499): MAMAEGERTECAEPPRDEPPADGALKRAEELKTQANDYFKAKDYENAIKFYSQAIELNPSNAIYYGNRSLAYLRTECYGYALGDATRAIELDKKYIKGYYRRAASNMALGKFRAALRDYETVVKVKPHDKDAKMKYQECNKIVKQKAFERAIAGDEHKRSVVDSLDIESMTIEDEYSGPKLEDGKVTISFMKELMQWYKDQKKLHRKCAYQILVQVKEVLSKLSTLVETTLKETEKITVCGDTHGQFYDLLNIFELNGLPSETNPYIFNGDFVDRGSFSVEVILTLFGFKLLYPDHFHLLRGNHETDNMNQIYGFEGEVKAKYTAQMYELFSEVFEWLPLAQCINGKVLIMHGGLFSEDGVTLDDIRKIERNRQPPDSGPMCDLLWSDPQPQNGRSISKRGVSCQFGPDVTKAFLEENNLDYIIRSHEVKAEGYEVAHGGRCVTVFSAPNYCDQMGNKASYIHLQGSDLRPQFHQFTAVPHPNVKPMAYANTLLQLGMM
Protocol: as §1

[5] = system: BM KSL cells; assay: CFC assay from 300 cGy-irradiated BM KSL cells, 3 day culture; format: cell-based, mouse
Protocol: CFC assays (colony-forming unit-granulocyte monocyte), burst-forming unit-erythroid, and CFU-GEMM were performed using MethoCult GF M3434 (Stemcell Technologies)[6]. […] Recombinant mouse SCF, Flt3 ligand, and TPO were purchased from R&D Systems. For competitive repopulation assays, BM cells were isolated from donor 10–12-week-old female CD45.2^+ mice. Recipient 10-week-old female CD45.1^+ B6.SJL mice were irradiated with 950 cGy TBI using a Cs137 irradiator and donor BM cells were administered via tail vein injection along with a competing dose of 1 × 10^5 non-irradiated host BM cells. Multilineage donor hematopoietic cell engraftment was measured in the PB by flow cytometry.

[6] = system: RAC1-GTP in BM lin− cells; assay: G-LISA activation assay: RAC1-GTP; format: cell-based, mouse; details: for RAC1-GTP level (G-LISA): Supplementary Figure 7c
Protocol: The RAC1-GTP, RHOA-GTP, and CDC42-GTP activation levels in BM lin^− cells were measured using a colorimetric-based RAC1-, RHOA-, and CDC42 G-LISA Activation Assay Kit (Cytoskeleton, Inc.). BM cells from femurs and tibias were isolated from 12-week-old Ptprs^+/+ and Ptprs^−/− mice. Cells were then depleted of lineage-committed cells with Direct Lineage Cell Depletion Kit (Miltenyi Biotec, #130-110-470; 1:5). The BM lin^− cell fraction was then serum starved in Iscove’s modified Dulbecco’s medium (IMDM) and treated with either vehicle (equal amount of DMSO) or 1 μg/mL DJ001 for 10 min at 37 °C. After treatment, cells were washed with ice-cold PBS and then placed in lysis buffer supplemented with protease inhibitor. Lysate concentrations were measured by Pierce^TM BCA Protein Assay Kit (ThermoFisher Scientific). G-LISA was performed according to the manufacturer’s instructions. Briefly, 12.5 μg of lysates was added to a GTP-binding protein pre-coated plate and active RAC1-GTP, RHOA-GTP, or CDC42-GTP levels were measured at 490 nm using a PowerWave XS2 microplate reader (BioTek).

[7] = BM KSL cells, 300 cGy, 3 days in TSF media + DJ001

T1 sequence (P62136 whole entry): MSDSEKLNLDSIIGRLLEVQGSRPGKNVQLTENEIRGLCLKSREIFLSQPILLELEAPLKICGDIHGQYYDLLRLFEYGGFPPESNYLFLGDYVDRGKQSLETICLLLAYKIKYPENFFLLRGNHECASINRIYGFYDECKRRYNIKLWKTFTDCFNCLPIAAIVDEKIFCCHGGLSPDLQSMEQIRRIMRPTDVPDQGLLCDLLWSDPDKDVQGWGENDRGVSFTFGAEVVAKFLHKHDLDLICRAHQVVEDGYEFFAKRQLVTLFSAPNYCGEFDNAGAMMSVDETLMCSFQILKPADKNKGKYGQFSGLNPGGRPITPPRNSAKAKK

O=C(/C=C\Nc1cccc([N+](=O)[O-])c1)c1ccccc1 [DJ001, (Z)-3-((3-nitrophenyl)amino)-1-phenylprop-2-en-1-one]
Supplementary Figure 1: PP activity ([1]; 2.7 μg/mL DJ001): 87 and 90 and 89 | Supplementary Figure 1: PP activity ([1]; 0.27 g/mL DJ001): 99 and 95 (2×) | RAC1-GTP levels ([2]; BM KSL cells from Ptprs+/+ mice): rapid increase in RAC1-GTP levels | RAC1-GTP levels ([2]; BM KSL cells from Ptprs−/− mice): no change in RAC1-GTP levels | Figure 3c: RAC1-GTP in BM KSL cells ([2]; Ptprs+/+ cells): 42 and 37.6 and 37.8 and 37.4 and 37.3 | Figure 3c: RAC1-GTP in BM KSL cells ([2]; Ptprs-/- cells): 84.6 and 83.8 and 81.9 and 85.5 and 85.6 | inhibitory activity against 20 other phosphatases [3]: no inhibitory activity | Supplementary Figure 1: PP5 activity ([4]; 2.7 μg/mL DJ001): 58 and 54 and 60 | Supplementary Figure 1: PP5 activity ([4]; 0.27 g/mL DJ001): 78 and 80 and 75 | inhibitory activity against Protein Phosphatase 5 ([4]; DJ001 at 10 μM and 1 μM): only modest inhibitory activity | recovery of BM CFCs and CFU-GEMM colonies vs control ([5]; 300 cGy, 1 μg/mL DJ001, 3 days): increased recovery of BM CFCs | BFU-E, numbers per replicate [5, 7]: 2 (3×) and 4 (2×) and 3 (5×) and 1 (2×) | GEMM, numbers per replicate [5, 7]: 5 (3×) and 3 (2×) and 4 (2×) and 6 (5×) | CFU-GEMM ([5]; Supplementary Figure 7g): 7 | CFU-GEMM ([5]; Supplementary Figure 7d): 7

O=C(/C=C\Nc1cc(F)cc(F)c1)c1ccccc1 [DJ009, (Z)-3-((3,5-difluorophenyl)amino)-1-phenylprop-2-en-1-one]
RAC1 activation ([6]; BM cells from Ptprs−/− mice, 1 μg/ml DJ001, 10 min): did not induce RAC1 activation | RAC1-GTP level (G-LISA) ([6]; Ptprs+/+ cells): 0.459 and 0.438 and 0.567 | RAC1-GTP level (G-LISA) ([6]; Ptprs-/- cells): 0.402 and 0.353 and 0.351 and 0.292
